Entries after “also recorded” stand apart in the source; their conditions may differ.
Legend:
[1] = biological target: T1, TARS (Homo sapiens, UniProt P26639); assay: Ap4A formation assay (TLC, [α-32P]-ATP); format: biochemical; parameters: His6 (N); made in house; host or cells: E. coli Rosetta 2 (DE3)pLysS, plasmid pET28a hctThrRS
T1 sequence (P26639 1-723): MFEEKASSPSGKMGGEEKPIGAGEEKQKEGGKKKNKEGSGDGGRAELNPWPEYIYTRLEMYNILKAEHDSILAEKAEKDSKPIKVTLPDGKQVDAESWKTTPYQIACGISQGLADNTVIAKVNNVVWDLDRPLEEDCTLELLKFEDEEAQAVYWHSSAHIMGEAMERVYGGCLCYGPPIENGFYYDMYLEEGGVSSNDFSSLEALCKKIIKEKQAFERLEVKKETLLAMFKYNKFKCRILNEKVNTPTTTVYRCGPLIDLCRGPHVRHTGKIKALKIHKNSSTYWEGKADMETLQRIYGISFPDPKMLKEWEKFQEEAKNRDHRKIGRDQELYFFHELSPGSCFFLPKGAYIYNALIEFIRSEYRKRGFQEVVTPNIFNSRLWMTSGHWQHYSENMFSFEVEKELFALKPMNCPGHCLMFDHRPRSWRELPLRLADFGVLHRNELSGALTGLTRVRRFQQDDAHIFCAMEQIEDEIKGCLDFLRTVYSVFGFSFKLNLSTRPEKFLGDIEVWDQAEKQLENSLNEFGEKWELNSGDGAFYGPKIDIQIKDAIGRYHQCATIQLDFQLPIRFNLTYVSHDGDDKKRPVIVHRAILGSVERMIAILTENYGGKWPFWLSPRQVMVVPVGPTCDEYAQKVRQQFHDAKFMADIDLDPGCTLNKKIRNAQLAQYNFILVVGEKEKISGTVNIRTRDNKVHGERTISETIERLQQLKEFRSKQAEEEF

[2] = biological target: T1, TARS; assay: GTPase (GTP hydrolysis) assay; format: biochemical; parameters: His6 (N); made in house; host or cells: E. coli Rosetta 2 (DE3)pLysS, plasmid pET28a hctThrRS; conditions: for GTP hydrolysis rate: 2 mM GTP
[3] = tested on: HUVEC; assay: Transwell migration assay; format: cell-based, human; conditions: 4 h
Experimental: Transwell Migration Assay—
Migration was assessed using transwell inserts (Svensson, Kucharzewska et al. 2011). […] Cultures were incubated for 4 h, fixed in 10% formalin, and stained with 10 μg/ml DAPI solution (Roche) following removal of cells from the top layer of the chamber with a cotton swab. Migrated cells were imaged using a 4× objective on the Olympus IX70 Inverted microscope (Olympus). DAPI-stained nuclei were counted using ImageJ software.

[4] = biological target: T1, TARS; assay: Ap4G formation assay (TLC, [α-32P]-GTP); format: biochemical; parameters: His6 (N); made in house; host or cells: E. coli Rosetta 2 (DE3)pLysS, plasmid pET28a hctThrRS
[5] = tested on: chorioallantoic membrane (CAM) of chicken embryos; assay: Chick chorioallantoic membrane (CAM) assay; format: in vivo
Experimental: Chick Chorioallantoic Membrane Assay—
Fertilized chicken eggs (Sunrise Farms, Catskill, N.Y.) day 1-2 post-laying were incubated in a humidified incubator at 37° C. for 72 h. Cleaned eggs were cracked and plated in a sterile 10 cm^2 tissue culture-treated dish and incubated at 37° C. for another 7 days. On developmental day 10, 1 mm^3 sterile gelatin sponge pieces (Surgifoam®; Johnson & Johnson Wound Management, Somerville, N.J.) were placed within the outer one-third of the membrane between large vessels. […] All compounds were applied in 10 μl to the CAM every 24 h for 72 h. Images were taken using a Leica MZ6 stereomicroscope every 24 h. Compounds were scored according to a modified version of Intensity Scoring as previously described (Ribatti, Nico et al. 2006). Briefly, each experimental condition was given a blinded score from 0-5 based on the change in the extent of vessel convergence and formation in proximity to the sponge from day 0 to day 3. Total score is averaged individual experimental condition scores from at least 15 replicates.
Fertilized chicken embryos were cultured ex-ova and, starting at developmental day 10, agents were applied daily to gelfoam sponges on the CAM. Images were recorded daily over 72 h and scored blindly according to a modified version Intensity Scoring as previously described (Ribatti, Nico et al. 2006). Additional details regarding methods are provided in the Methods and Materials section of Example 1.

[6] = tested on: HUVECs; assay: Endothelial cell proliferation assay (alamarBlue); format: cell-based, human
Experimental: Endothelial Cell Proliferation Assay—
The […] alamarBlue® (Invitrogen) reagent was used to assess cell proliferation (Ahmed, Gogal et al. 1994). HUVECs were seeded in a 96-well dish (1×10^3 cells/well) and grown for 48 h in EGM®-2 media. […] After 48 h, 72 h, or 96 h in culture, 10 μl/well premixed alamarBlue® (Invitrogen) was added and after 3 h at 37° C. the amount of reduced alamarBlue® was quantified by fluorescence (excitation at 530 nm, emission at 590 nm) on a microplate reader (Synergy™ HT, BioTek, Winooski, Vt.).

[7] = tested on: Human umbilical vein endothelial cells (HUVECs); assay: In vitro endothelial tube formation assay on Matrigel; format: cell-based
Experimental: In Vitro Tube Formation Assay—
Tube formation assays were performed as described (Arnaoutova and Kleinman 2010; Cassavaugh, Hale et al. 2011). Human Umbilical Vein Endothelial Cells (HUVECs) were seeded in 48-well plates (1.5×10^4 cells/well) coated with 100 μl of Matrigel™ Basement Membrane Matrix Growth Factor Reduced (BD Biosciences, San Jose, Calif.) and incubated in Clonetics® EGM®-2 complete media (Lonza, Annandale, N.J.) or EGM®-2 with reduced serum (0.2% fetal bovine serum). Cells were incubated at 37° C. for 6 h then fixed in 10% formalin. Fixed samples were imaged by phase-contrast microscopy or stained with Oregon Green 488 Phalloidin (Molecular Probes, Eugene, Oreg.) then imaged with fluorescence microscopy (2× objective). Number of tubes and tube lengths (in pixels) were quantified using the Simple Neurite Tracer (Longair, Baker et al. 2011) plug-in on ImageJ software (NIH). Statistical analysis of one-way ANOVA was performed with GraphPad Software. Multiple comparisons were performed using the Tukey Test.

## C[C@@H]1C[C@H](C)C[C@H](C)[C@@H](O)CC(=O)O[C@H]([C@@H]2CC[C@H]2C(=O)O)C/C=C/C=C(/C#N)[C@H](O)[C@@H](C)C1 [BC194]
[1]; human TARS, 10 μM compound
  Ap4A synthesis, inhibition (qualitative): at least partially inhibited
[1]; wildtype TARS, 10 μM compound
  decrease in Ap4A formation activity: 31.0%
[2]; 10 μM compound
  change of TARS GTPase activity upon treatment with inhibitor: no observable change
[3]; 10 nM BC194 with 50 ng/ml VEGF or 100 nM TARS
  VEGF- and TARS-mediated migration, effect of BC194: reduced both the migration effects of VEGF and TARS
[4]; human TARS, 10 μM compound
  Ap4G synthesis, inhibition (qualitative): at least partially inhibited
[4]; wildtype TARS, 10 μM BC194
  reduction of Ap4G reaction rate: 57%
[5]; BC194 10 nM applied daily, basal level and after stimulation with bFGF or VEGF
  CAM vessel formation, effect of inhibitor: inhibited vessel formation
[6]; HUVECs, 50 ng/ml VEGF, 10 nM BC194
  VEGF proliferative response, effect of BC194: did not significantly reduce
[6]; HUVECs, BC194 concentrations below 100 nM
  proliferation: unaffected
[7]; HUVECs on Matrigel, full serum media, 6 h, range of BC194 concentrations
  number of branches formed by endothelial cells in tube formation assay: sensitive to subnanomolar concentrations; also recorded: inhibits endothelial tube formation
[7]; HUVECs, range of BC194 concentrations
  tube (branch) length: unaffected; also recorded: does not affect
[7]; lower
  concentration required to affect tube formation relative to that required to detect unfolded protein response (phospho-eIF2α) and apoptosis (cleaved caspase-3): 100 fold

B1: TARS: N-terminal His6-tagged human threonyl-tRNA synthetase expressed and purified from E. coli; SEQ ID NO:2 (protein, listed as Homo sapiens)
chain: MFEEKASSPSGKMGGEEKPIGAGEEKQKEGGKKKNKEGSGDGGRAELNPWPEYIYTRLEMYNILKAEHDSILAEKAEKDSKPIKVTLPDGKQVDAESWKTTPYQIACGISQGLADNTVIAKVNNVVWDLDRPLEEDCTLELLKFEDEEAQAVYWHSSAHIMGEAMERVYGGCLCYGPPIENGFYYDMYLEEGGVSSNDFSSLEALCKKIIKEKQAFERLEVKKETLLAMFKYNKFKCRILNEKVNTPTTTVYRCGPLIDLCRGPHVRHTGKIKALKIHKNSSTYWEGKADMETLQRIYGISFPDPKMLKEWEKFQEEAKNRDHRKIGRDQELYFFHELSPGSCFFLPKGAYIYNALIEFIRSEYRKRGFQEVVTPNIFNSRLWMTSGHWQHYSENMFSFEVEKELFALKPMNCPGHCLMFDHRPRSWRELPLRLADFGVLHRNELSGALTGLTRVRRFQQDDAHIFCAMEQIEDEIKGCLDFLRTVYSVFGFSFKLNLSTRPEKFLGDIEVWDQAEKQLENSLNEFGEKWELNSGDGAFYGPKIDIQIKDAIGRYHQCATIQLDFQLPIRFNLTYVSHDGDDKKRPVIVHRAILGSVERMIAILTENYGGKWPFWLSPRQVMVVPVGPTCDEYAQKVRQQFHDAKFMADIDLDPGCTLNKKIRNAQLAQYNFILVVGEKEKISGTVNIRTRDNKVHGERTISETIERLQQLKEFRSKQAEEEF
modifications: N-terminal His6 tag
[1]; 5 μM enzyme, 2 mM threonine, 2 mM ATP
  Ap4A production rate: 0.1391 Ap4A/active site/min
[2]; listed as human TARS
  GTP hydrolysis rate: potent GTPase activities
[2]; listed as wildtype
  GTP hydrolysis rate: 0.3033 GDP/active site/min
[3]; 100 nM protein in migration compartment
  migration of endothelial cells: significantly increased migration; also recorded: selectively induces migration
[4]; 2 mM ATP, 2 mM threonine, 2 mM GTP
  Ap4G formation rate: 0.1639 Ap4G/active site/min
[5]; protein plus BC194 applied to CAM
  sensitivity of synthetase-induced CAM angiogenesis to BC194: sensitive to BC194
[5]; purified protein applied daily to gelfoam sponge, 72 h
  CAM vessel formation / vascularity, effect of applied synthetase: stimulated vessel formation; also recorded: induces in vivo angiogenesis
[6]; HUVECs in low serum (0.2% FBS) media
  cell proliferation, effect of TARS: did not exert a significant effect; also recorded: does not significantly affect cell proliferation
[7]; 100 nM purified recombinant human TARS added to low serum (0.2% FBS) media, 6 h
  number of tube branches: significantly increased; also recorded: promotes angiogenesis

Reference: patent US10125358B2, “Methods and compounds for increasing threonyl-tRNA synthetase activity” (UNIVERSITY OF VERMONT AND STATE AGRICULTURAL COLLEGE, priority 2012, dated 2018)
